Experiments:
Callosobruchus chinensis [1] = assay: Insecticidal activity against Callosobruchus chinensis adults reared on green gram assessed as insect mortality after 24 hr; assay type: functional
Callosobruchus chinensis [2] = assay: Insecticidal activity against Callosobruchus chinensis adults reared on green gram assessed as insect mortality at 1000 mg/L after 24 hr; assay type: functional

Structure (SMILES) | LC50 (Callosobruchus chinensis [1]) [mg/cm2] | mortality at 1000 µg/mL (Callosobruchus chinensis [2]) [%]
COc1ccc(C2C=C(c3ccccc3)NC(=S)N2)cc1 (configuration not stated) | 0.00164 | 60
S=C1NC(c2ccc(Cl)cc2)=CC(c2ccccc2Cl)N1 (configuration not stated) | 0.00524 | 85
S=C1NC(c2ccc(Cl)cc2)=CC(c2ccccc2)N1 (configuration not stated) | 0.00556 | 78
Fc1ccc(C2C=C(c3ccccc3)NC(=S)N2)cc1 (configuration not stated) | – | 60
COc1ccc(C2=CC(c3ccccc3Cl)NC(=S)N2)cc1 (configuration not stated) | – | 68
Cc1ccc(C2=CC(c3ccc(F)cc3)NC(=S)N2)cc1 (configuration not stated) | – | 68
COc1ccc(C2=CC(c3ccc(OC)cc3)NC(=S)N2)cc1 (configuration not stated) | – | 70
COP(=O)(OC)OC=C(Cl)Cl [DICHLORVOS] | 0.00243 | –
Cc1ccc(C2=CC(c3ccccc3Cl)NC(=S)N2)cc1 (configuration not stated) | 0.00122 | 87
S=C1NC(c2ccccc2)=CC(c2ccc(Cl)cc2)N1 (configuration not stated) | 0.00289 | 90
S=C1NC(c2ccccc2)=CC(c2ccccc2Cl)N1 (configuration not stated) | 0.00201 | 78
COc1ccc(C2=CC(c3ccccc3)NC(=S)N2)cc1 (configuration not stated) | – | 68
Cc1ccc(C2=CC(c3ccc(Cl)cc3)NC(=S)N2)cc1 (configuration not stated) | 0.01227 | 93
COc1ccc(C2=CC(c3ccc(F)cc3)NC(=S)N2)cc1 (configuration not stated) | 0.00304 | 86
S=C1NC(c2ccc(Cl)cc2)=CC(c2ccc(Cl)cc2)N1 (configuration not stated) | – | 69
COc1ccc(C2C=C(c3ccc(Cl)cc3)NC(=S)N2)cc1 (configuration not stated) | – | 40
COc1ccc(C2C=C(c3ccc(C)cc3)NC(=S)N2)cc1 (configuration not stated) | – | 80
Cc1ccc(C2=CC(c3ccccc3)NC(=S)N2)cc1 (configuration not stated) | – | 66
Fc1ccc(C2C=C(c3ccc(Cl)cc3)NC(=S)N2)cc1 (configuration not stated) | 0.00461 | 75
COc1ccc(C2=CC(c3ccc(Cl)cc3)NC(=S)N2)cc1 (configuration not stated) | 0.00175 | 82
SC1=NC(c2ccccc2)=CC(c2ccccc2)N1 (configuration not stated) | 0.00795 | 75

— ChEMBL document CHEMBL3045215, “Synthesis and insecticidal activity of 3,4-dihydropyrimidine-2(1H)-thiones against the pulse beetle, Callosobruchus chinensis” (2011)
